Assay results as given in patent publication US10806711B2 (priority 2011, dated 2020).
Entries after “also recorded” stand apart in the source; their conditions may differ.

Key:
HL-1 cells [1] = assay: Imaging and measurement of Ca2+ fluorescence in HL-1 cells; assay type: cell-based
Procedure: Imaging and measurement of Ca2+ fluorescence.—HL-1 cells were obtained as described above. Dissociated cells were plated on glass cover-slip (GG-25-polylysine #1, Neuvitro, Calif.) placed inside each well of six-well plates (BD Falcon). Acquisition of images were done at 40-65 Hz by using LSM 510 Meta system equipped with the inverted Axiovert 200 M BP (Carl Zeiss Microscopy, LLC, Thornwood, N.Y.) and LSMS Software. Image acquisition was done with Plan-Apochromat 40×/water with frame size of 512 (X) and 256(Y). To optimize the speed of acquisition, the acquisition area was limited to a few cells. […] Peak fluorescence before perfusion (F0) and that after perfusion (F) were determined manually after acquisition of images from the saved LSM files. Circular areas within the cytosol of each cell of the saved images over the entire duration of respective experiments were used to determine changes in fluorescence before and after perfusion. Normalized fluorescence, determined as a quotient of F/F0, was used as a variable to compare the relative changes in fluorescence at different incremental concentrations during statistical analyses. […]

TRPV2^−/− mice = assay: Contractility by echo after IP probenecid in TRPV2−/− mice; assay type: in vivo, mouse; settings: 100 mg/kg IP
Procedure: WT, TRPV2^+/−, and TRPV2^−/− mice were monitored by echo for 30 minutes after injection as described below. Echocardiography—All echocardiographic studies were performed with a Vevo 2100 Ultrasound system (Visualsonics, Toronto Calif.) with an MS400 probe (30 MHz centerline frequency) and were post-processed at a separate workstation with Vevostrain software (Vevo 2100, v1.1.1 B1455, Visualsonic, Toronto, Canada). Images were obtained from PSLAX and short axis (SAX) views at depths between 2 and 10 mm in both M-mode and B-mode. All studies on mice exposed to I/R injury included M-mode, B-mode in PSLAX and strain imaging in SAX. While for the contractility studies, only M-mode measurements were obtained from the PSLAX. Strain imaging was performed from the B-mode images and regional radial strain and circumferential displacement were measured by regional wall and summed average from the SAX images. From the M-mode images, left ventricular cavity size and wall thickness was measured and the ejection fraction (EF) and fractional shortening (FS) calculations were obtained using the Vevo software. […] In addition, the average change from baseline for each time point between 5 and 30 minutes was determined for each mouse, with measurements being taken every 5 minutes. […]

[2] = tested on: phospholamban (PLN) and the ryanodine receptor (RyR), NCX, SERCA2a; assay: Western blot of calcium handling proteins in Langendorff hearts; design: species or system mouse
Text: Western Blot Analysis—WT hearts used for protein expression were isolated from control mice (C57, 12-16 weeks old) from the Langendorff experiments. Total protein for calcium handling proteins was isolated by homogenizing whole hearts in an ice-cold buffer containing (in mM): 80 Imidazole, 300 sucrose, 1 DTT, 10 sodium metabisulfite, the protease inhibitor cocktail P8340 (Sigma, St. Louis, Mo.) and the phosphatase inhibitor cocktail set II (EMD, Merck, Darmstadt, Germany). Protein concentrations were determined using the BCA Protein Assay kit (Pierce, Thermo Scientific, Rockford, Ill.). Aliquots of protein were separated on SDS-PAGE gels (Novex gels, Invitrogen, Eugene, Oreg.) and then transferred to nitrocellulose membranes (Bio-Rad, Hercules, Calif.) and blocked with 5% BSA. The membranes were analyzed with primary antibodies. When appropriate, the membranes were cut in half to allow two different primary antibodies to be used. The top half would be used for one of the Ca^2+ handling proteins and the bottom half (less than 60 kD) would be used for the normalization protein, actin. In circumstances where it wasn't appropriate to cut the membrane, as the two proteins were too close in size, the membranes were stripped after the first protein. Membranes were also stripped between primary antibodies for phosphorylated proteins and corresponding total protein.

[3] = tested on: subjects with uncomplicated congestive heart failure; settings: 2 g/day or 4 g/day orally over several days; cited from earlier work
HL-1 cells [4] = assay type: cell-based
Procedure: Cell Viability Assays—Cell viability was assessed using the ApoTox-Glo Triplex Assay (Promega, Madison, Wis.) per manufacturer's instructions. Briefly, HL-1 cells were seeded in 96 well plates at a density of 1×10^4 cells/well and allowed to grow overnight in Claycomb media supplemented with 10% FBS, 100 U/ml penicillin/streptomycin, and 2 mM L-glutamine. […] GF-AFC viability was then added to ApoTox-Glo Assay Buffer at a ratio of 10 μl GF-AFC to 2.0 ml Assay Buffer and 20 μl of this mixture was added to each well and cells were incubated at 37° C. for 30 minutes. Fluorescence was measured at 400 nm (ex)/505 nm (em) and the data was normalized to untreated control cells.

CCCN(CCC)S(=O)(=O)c1ccc(C(=O)O)cc1 [probenecid]
median peak cytosolic fluorescence after vs before perfusion (HL-1 cells [1]; higher probenecid concentrations (up to 10^−4)): significantly higher
median peak cytosolic fluorescence before vs after perfusion (HL-1 cells [1]; probenecid 10^−8): No significant differences
cardiac response (contractility) during 30 minutes of echocardiogram (TRPV2^−/− mice): no discernable cardiac response; also recorded: absolutely no change in function
expression levels of NCX and SERCA2a ([2]; hearts after 10^−6 M perfusion, data not shown): no changes were found in the expression levels
amount of phosphorylated or total phospholamban or ryanodine receptor ([2]; hearts after 5 minute perfusion of 10^−6 M): no significant changes
diuretic effect [3]: strong diuretic effect
cytotoxicity / cell death (HL-1 cells [4]; increasing doses, 4, 8 or 24 hours following treatment): does not result in any detectable cytotoxicity; also recorded: no significant cell death
cell death in HL-1 cells (Example 3 summary) (HL-1 cells [4]; probenecid at supraphysiological, isoproterenol at clinically relevant concentrations): no cell death
